Test results as given in ChEMBL document CHEMBL3875162, “Synthesis and biological evaluation of new benzimidazole-thiazolidinedione hybrids as potential cytotoxic and apoptosis inducing agents” (Eur J Med Chem, 2016).
Active and inactive are the calls of the source. No cut-off for these calls is given here.

Columns and labels:
[1] = Cell cycle arrest in human A549 cells assessed as accumulation at G2/M phase at 10 uM after 24 hrs by propidium iodide staining-based flow cytometry (reference value: 23.3%); assay type: functional
[2] = test system: A549; experiment: Induction of morphological changes in human A549 cells assessed as […] at 5 to 15 uM after 24 hrs by phase contrast microscopic method; assay type: functional, cell-based
[3] = Antimigratory activity in human A549 cells assessed as cell migration at 15 uM after 24 hrs by phase contrast microscopy-based wound healing assay relative to control; assay type: functional
[4] = test system: A549; experiment: Induction of apoptosis in human A549 cells assessed as decrease in cell viability at 5 to 15 uM after 24 hrs by phase contrast microscopic method; assay type: functional, cell-based
[5] = test system: A549; experiment: Induction of apoptosis in human A549 cells assessed as condensation of chromatin at 5 uM after 24 hrs by acridine orange/ethidium bromide-dual staining based fluorescence microscopic method; assay type: functional, cell-based
[6] = test system: A549; experiment: Induction of apoptosis in human A549 cells assessed as increase in superoxide production after 24 to 48 hrs by mitoSOX red-probe based fluorescence microscopic method; assay type: functional, cell-based
[7] = Induction of apoptosis in human A549 cells assessed as irregular distribution of chromatin at 10 to 15 uM after 24 hrs by acridine orange/ethidium bromide-dual staining based fluorescence microscopic method; assay type: functional, cell-based
[8] = test system: A549; experiment: Induction of apoptosis in human A549 cells assessed as apoptotic body formation at 10 to 15 uM after 24 hrs by acridine orange/ethidium bromide-dual staining based fluorescence microscopic method; assay type: functional, cell-based
[9] = Antimigratory activity in human A549 cells assessed as cell migration at 5 uM after 24 hrs by phase contrast microscopy-based wound healing assay relative to control; assay type: functional
[10] = test system: A549; experiment: Induction of apoptosis in human A549 cells assessed as appearance of horse-shoe shaped nucleus at 5 to 15 uM after 24 hrs by DAPI staining based fluorescence microscopic method; assay type: functional, cell-based
[11] = test system: A549; experiment: Induction of apoptosis in human A549 cells assessed as chromatin condensation at 5 to 15 uM after 24 hrs by DAPI staining based fluorescence microscopic method; assay type: functional, cell-based
[12] = Antimigratory activity in human A549 cells assessed as cell migration at 15 uM after 48 hrs by phase contrast microscopy-based wound healing assay relative to control; assay type: functional
[13] = test system: A549; experiment: Induction of apoptosis in human A549 cells assessed as necrotic cells at 10 uM after 24 hrs by Annexin V-FITC/propidium iodide staining based flow cytometry (reference value: 2.3%); assay type: functional
[14] = test system: A549; experiment: Antimigratory activity in human A549 cells after 24 hrs by phase contrast microscopy-based wound healing assay; assay type: functional, cell-based
[15] = Cell cycle arrest in human A549 cells assessed as decrease in cell levels at G0/G1 phase after 24 hrs by propidium iodide staining-based flow cytometry; assay type: functional
[16] = Cytotoxicity against human PC3 cells assessed as cell growth inhibition after 48 hrs by MTT assay; assay type: functional, cell-based; conditions: PC-3, 48 h
[17] = Cytotoxicity against human A549 cells assessed as cell growth inhibition after 48 hrs by MTT assay; assay type: functional, cell-based; conditions: A549, 48 h
[18] = test system: A549; experiment: Inhibition of F-actin polymerization in human A549 cells assessed as disruption of actin fibre assembly after 24 hrs by rhodamine-phalloidin/[…]-dual staining based fluorescent microscopic method; assay type: cell-based
[19] = test system: A549; experiment: Induction of morphological changes in human A549 cells assessed as cell shrinkage at 5 to 15 uM after 24 hrs by phase contrast microscopic method; assay type: functional, cell-based
[20] = Cell cycle arrest in human A549 cells assessed as accumulation at G0/G1 phase at 5 uM after 24 hrs by propidium iodide staining-based flow cytometry (reference value: 66.6%); assay type: functional
[21] = test system: A549; experiment: Induction of apoptosis in human A549 cells assessed as necrotic cells at 5 uM after 24 hrs by Annexin V-FITC/propidium iodide staining based flow cytometry (reference value: 2.3%); assay type: functional
[22] = test system: A549; experiment: Induction of apoptosis in human A549 cells assessed as early apoptotic cells at 10 uM after 24 hrs by Annexin V-FITC/propidium iodide staining based flow cytometry (reference value: 2.6%); assay type: functional
[23] = Cell cycle arrest in human A549 cells assessed as accumulation at G2/M phase at 5 uM after 24 hrs by propidium iodide staining-based flow cytometry (reference value: 23.3%); assay type: functional
[24] = test system: A549; experiment: Induction of apoptosis in human A549 cells assessed as necrotic cells at 15 uM after 24 hrs by Annexin V-FITC/propidium iodide staining based flow cytometry (reference value: 2.3%); assay type: functional
[25] = Cytotoxicity against human MDA-MB-231 cells assessed as cell growth inhibition after 48 hrs by MTT assay; assay type: functional, cell-based; conditions: MDA-MB-231, 48 h
[26] = test system: A549; experiment: Induction of mitochondrial membrane potential loss in human A549 cells at 10 uM after 24 hrs by rhodamine-123 staining based flow cytometry relative to control; assay type: functional
[27] = test system: A549; experiment: Induction of apoptosis in human A549 cells assessed as late apoptotic cells at 5 uM after 24 hrs by Annexin V-FITC/propidium iodide staining based flow cytometry (reference value: 0.8%); assay type: functional
[28] = test system: A549; experiment: Induction of mitochondrial membrane potential loss in human A549 cells at 15 uM after 24 hrs by rhodamine-123 staining based flow cytometry relative to control; assay type: functional
[29] = test system: A549; experiment: Induction of apoptosis in human A549 cells assessed as destructive fragmentation of nucleus forming horse-shoe shaped structure at 10 to 15 uM after 24 hrs by acridine orange/ethidium bromide-dual staining based fluorescence microscopic method; assay type: functional, cell-based
[30] = Cytotoxicity against human DU145 cells assessed as cell growth inhibition after 48 hrs by MTT assay; assay type: functional, cell-based; conditions: DU-145, 48 h
[31] = test system: A549; experiment: Induction of apoptosis in human A549 cells after 24 hrs by Annexin V-FITC/propidium iodide staining based flow cytometry; assay type: functional, cell-based
[32] = test system: A549; experiment: Induction of apoptosis in human A549 cells assessed as viable cells at 15 uM after 24 hrs by Annexin V-FITC/propidium iodide staining based flow cytometry (reference value: 94%); assay type: functional; conditions: A549, 24 h, read-out: Activity
[33] = test system: A549; experiment: Induction of apoptosis in human A549 cells assessed as cell membrane blebbing at 5 uM after 24 hrs by acridine orange/ethidium bromide-dual staining based fluorescence microscopic method; assay type: functional
[34] = Cell cycle arrest in human A549 cells assessed as accumulation at S phase at 10 uM after 24 hrs by propidium iodide staining-based flow cytometry (reference value: 11.5%); assay type: functional
[35] = test system: A549; experiment: Induction of apoptosis in human A549 cells assessed as viable cells at 5 uM after 24 hrs by Annexin V-FITC/propidium iodide staining based flow cytometry (reference value: 94%); assay type: functional; conditions: A549, 24 h, read-out: Activity
[36] = test system: A549; experiment: Induction of apoptosis in human A549 cells assessed as early apoptotic cells at 5 uM after 24 hrs by Annexin V-FITC/propidium iodide staining based flow cytometry (reference value: 2.6%); assay type: functional
[37] = test system: A549; experiment: Induction of apoptosis in human A549 cells assessed as late apoptotic cells at 15 uM after 24 hrs by Annexin V-FITC/propidium iodide staining based flow cytometry (reference value: 0.8%); assay type: functional
[38] = test system: A549; experiment: Induction of mitochondrial membrane potential loss in human A549 cells at 5 uM after 24 hrs by rhodamine-123 staining based flow cytometry relative to control; assay type: functional
[39] = Antimigratory activity in human A549 cells assessed as cell migration at 10 uM after 24 hrs by phase contrast microscopy-based wound healing assay relative to control; assay type: functional

Cn1c(/C=C2\SC(=O)N(CC(=O)Nc3nc(-c4ccccc4)cs3)C2=O)nc2ccccc21
Activity [1]: 49.3%
Activity [2]: Active
Activity [3]: 60.4%
Activity [4]: Active
Activity [5]: Active
Activity [6]: Dose-dependent effect
Activity [7]: Active
Activity [8]: Active
Activity [9]: 77.8%
Activity [10]: Active
Activity [11]: Active
Activity [12]: 29.6%
Activity [13]: 3%
Activity [14]: Dose-dependent effect
Activity [15]: Dose-dependent effect
IC50 [16]: 39.9 µM
IC50 [17]: 11.5 µM
inhibition [18]: Dose-dependent effect
Activity [19]: Active
Activity [20]: 48.9%
Activity [21]: 0.6%
Activity [22]: 15.8%
Activity [23]: 41.4%
Activity [24]: 2.5%
IC50 [25]: 29.2 µM
Activity [26]: 30.6%
Activity [27]: 6.2%
Activity [28]: 45.8%
Activity [29]: Active
IC50 [30]: 31.4 µM
Activity [31]: Dose-dependent effect
viability at 15 µM [32]: 66.8%
Activity [33]: Active
Activity [34]: 7.9%
viability at 5 µM [35]: 80.5%
Activity [36]: 12.8%
Activity [37]: 11.9%
Activity [38]: 24.6%
Activity [39]: 74.3%
